Legend:
[1] = test system: ALOMY; experiment: Post-emergence herbicidal effect, greenhouse pot test; type: in vivo, Alopecurus myosuroides; conditions: visual rating about 3 weeks after treatment
In short: (§1)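 Greenhouse pot test: weeds and crops sown in sandy loam, sprayed post-emergence at one-leaf stage (2–3 weeks after sowing) with WP or EC formulations plus 0.5% additive at 600 l/ha water, rates 20–320 g/ha. Visual rating about 3 weeks later versus untreated controls (100% = dead, 0% = as control).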

[2] = test system: PHBPU; experiment: as above; type: in vivo, Ipomoea purpurea; conditions: for pest or weed control at 320 g/ha: Ipomoea purpurea, 504 h, read-out: Post-emergence effect against PHBPU in %
In short: as §1

[3] = test system: LOLRI; experiment: as above; type: in vivo, Lolium rigidum; conditions: 320 g/ha
In short: as §1

[4] = test system: DIGSA; experiment: as above; type: in vivo, Digitaria sanguinalis; conditions: visual rating about 3 weeks after treatment
In short: as §1

[5] = test system: ZEAMX; experiment: Post-emergence herbicidal effect and crop plant compatibility, greenhouse pot test; type: in vivo, Zea mays; conditions: one-leaf stage, rated visually after about 3 weeks vs untreated controls; for plant injury at 80 g/ha: read-out: Post-emergence effect at 80 g/ha against ZEAMX in %; for plant injury at 320 g/ha: read-out: Post-emergence effect at 320 g/ha against ZEAMX in %
In short: as §1

[6] = test system: VERPE; experiment: Post-emergence herbicidal effect, greenhouse pot test; type: in vivo, Veronica persica
In short: as §1

[7] = test system: VIOTR; experiment: as above; type: in vivo, Viola tricolor
In short: as §1

[8] = test system: MATIN; experiment: as above; type: in vivo, Tripleurospermum inodorum
In short: as §1

[9] = test system: AVEFA; experiment: as above; type: in vivo, Avena fatua; conditions: 320 g/ha, visual rating about 3 weeks after treatment
In short: as §1

[10] = test system: AMARE; experiment: as above; type: in vivo, Amaranthus retroflexus; conditions: visual rating about 3 weeks after treatment
In short: as §1

[11] = test system: ORYSA; experiment: Post-emergence herbicidal effect and crop plant compatibility, greenhouse pot test; type: in vivo, Oryza sativa; conditions: for Post-emergence effect against ORYSA: visual rating about 3 weeks after treatment, crop plant; for Post-emergence effect at 320 g/ha against ORYSA in %: one-leaf stage, rated visually after about 3 weeks vs untreated controls
Description: • ALOMY: Alopecurus myosuroides SETVI: Setaria viridis • AVEFA: Avena fatua POLCO: Fallopia convolvulus • AMARE: Amaranthus retroflexus ECHCG: Echinochloa crus-galli • LOLRJ: Lolium rigidum STEME: Stellaria media • VERPE: Veronica persica MATIN: Tripleurospermum inodorum • DIGSA: Digitaria sanguinalis ABUTH: Abutylon threophrasti • TRZAS: Triticum aestivum VIOTR: Viola tricolor • BRSNW: Brassica napus ZEAMX: Zea mays • PHBPU: Ipomoea purpurea GLXMA: Glycine max • ORYSA: Oryza sativa HORMU: Hordeum murinum
Seeds of monocotyledonous and dicotyledonous weeds and crop plants are placed in sandy loam in plastic or organic planting pots, covered with soil and cultivated in a greenhouse under controlled growth conditions. 2 to 3 weeks after sowing, the trial plants are treated at the one-leaf stage. The compounds of the invention, formulated in the form of wettable powders (WP) or as emulsion concentrates (EC), are then sprayed onto the green parts of the plants as aqueous suspension or emulsion with addition of 0.5% additive at a water application rate of 600 l/ha (converted). After the test plants have been kept in the greenhouse under optimum growth conditions for about 3 weeks, the activity of the preparations is rated visually in comparison to untreated controls. For example, 100% activity=the plants have died, 0% activity=like control plants.
Tables 20a to 38c below show the effects/crop compatibilities of selected compounds of the general formula (I) on various harmful plants at an application rate corresponding to 20 to 320 g/ha, which were obtained by the trial procedure specified above.

[12] = test system: ABUTH; experiment: Post-emergence herbicidal effect, greenhouse pot test; type: in vivo, Abutilon theophrasti; conditions: visual rating about 3 weeks after treatment
In short: as §1

[13] = test system: ECHCG; experiment: as above; type: in vivo, Echinochloa crus-galli
In short: as §1

[14] = test system: SETVI; experiment: as above; type: in vivo, Setaria viridis
In short: as §1

[15] = test system: POLCO; experiment: as above; type: in vivo, Fallopia convolvulus
In short: as §1

[16] = test system: TRZAS; experiment: Post-emergence herbicidal effect and crop plant compatibility, greenhouse pot test; type: in vivo, Triticum aestivum; conditions: 20 g/ha, one-leaf stage, rated visually after about 3 weeks vs untreated controls; for percent crop injury (phytotoxicity) to wheat, post-emergence at 20 g/ha: Triticum aestivum, 504 h, read-out: Post-emergence effect at 20 g/ha against TRZAS in %
In short: as §1

COC(=O)CCOC(=O)C(OC)Oc1nn(-c2ccccc2F)c(-c2ccc(F)nc2)c1Br (single isomer, unassigned) [Example I-13]
Post-emergence effect against ALOMY ([1]; 80 g/ha): 80%
Post-emergence effect against ALOMY ([1]; 320 g/ha): 90%
Post-emergence effect against PHBPU in % ([2]; 320 g/ha): 90%
Post-emergence effect against LOLRI in % [3]: 80%
Post-emergence effect against DIGSA ([4]; 80 g/ha): 90%
Post-emergence effect against DIGSA ([4]; 320 g/ha): 90%
Post-emergence effect at 20 g/ha against ZEAMX in % ([5]; 20 g/ha): 10%
Post-emergence effect at 80 g/ha against ZEAMX in % [5]: 20%
Post-emergence effect against VERPE in % ([6]; 80 g/ha): 80%
Post-emergence effect against VERPE in % ([6]; 320 g/ha): 80%
Post-emergence effect against VIOTR in % ([7]; 320 g/ha): 80%
Post-emergence effect against MATIN in % ([8]; 80 g/ha): 80%
Post-emergence effect against MATIN in % ([8]; 320 g/ha): 80%
Post-emergence effect against AVEFA [9]: 80%
Post-emergence effect against AMARE ([10]; 320 g/ha): 80%
Post-emergence effect against ORYSA ([11]; 20 g/ha): 10%
Post-emergence effect against ABUTH ([12]; 320 g/ha): 80%
Post-emergence effect against ECHCG ([13]; 20 g/ha, visual rating about 3 weeks after treatment): 80%
Post-emergence effect against ECHCG in % ([13]; 80 g/ha): 90%
Post-emergence effect against ECHCG in % ([13]; 320 g/ha): 90%
Post-emergence effect against SETVI in % ([14]; 80 g/ha): 80%
Post-emergence effect against SETVI in % ([14]; 320 g/ha): 90%
Post-emergence effect against POLCO in % ([15]; 80 g/ha): 80%
Post-emergence effect against POLCO in % ([15]; 320 g/ha): 80%

COC(Oc1nn(-c2ccccc2F)c(-c2ccc(F)nc2)c1Br)C(=O)O (centres unmarked) [Example I-12]
Post-emergence effect at 20 g/ha against ZEAMX in % ([5]; 20 g/ha): 0%
plant injury at 80 g/ha ([5]; Zea mays, 504 h): 20%
Post-emergence effect at 320 g/ha against ORYSA in % [11]: 20%
Post-emergence effect at 20 g/ha against TRZAS in % [16]: 0%

COC(=O)C(OC)Oc1nn(-c2ccc(F)nc2)c(-c2ccc(F)nc2)c1Br (centres unmarked) [Example I-15]
pest or weed control at 320 g/ha ([2]; 320 g/ha): 80%
plant injury at 20 g/ha ([5]; Zea mays, 504 h, 20 g/ha, read-out: Post-emergence effect at 20 g/ha against ZEAMX in %): 0%
plant injury at 80 g/ha ([5]; Zea mays, 504 h): 10%
plant injury at 320 g/ha ([5]; Zea mays, 504 h): 20%
pest or weed control at 320 g/ha ([7]; Viola tricolor, 504 h, 320 g/ha, read-out: Post-emergence effect against VIOTR in %): 80%
Post-emergence effect at 320 g/ha against ORYSA in % [11]: 10%
percent crop injury (phytotoxicity) to wheat, post-emergence at 20 g/ha [16]: 0%

COC(=O)C(OC)Oc1nn(-c2cccc(Cl)c2F)c(-c2cncc(F)c2)c1Br (centres unmarked) [Example I-17]
Post-emergence effect against ALOMY ([1]; 320 g/ha): 90%
Post-emergence effect against PHBPU in % ([2]; 20 g/ha): 90%
Post-emergence effect against PHBPU in % ([2]; 80 g/ha): 90%
Post-emergence effect against PHBPU in % ([2]; 320 g/ha): 90%
Post-emergence effect against LOLRI in % [3]: 80%
Post-emergence effect against DIGSA ([4]; 80 g/ha): 80%
Post-emergence effect against DIGSA ([4]; 320 g/ha): 90%
Post-emergence effect against VERPE in % ([6]; 20 g/ha): 80%
Post-emergence effect against VERPE in % ([6]; 80 g/ha): 80%
Post-emergence effect against VERPE in % ([6]; 320 g/ha): 90%
Post-emergence effect against VIOTR in % ([7]; 20 g/ha): 90%
Post-emergence effect against VIOTR in % ([7]; 80 g/ha): 90%
Post-emergence effect against VIOTR in % ([7]; 320 g/ha): 90%
Post-emergence effect against MATIN in % ([8]; 20 g/ha): 80%
Post-emergence effect against MATIN in % ([8]; 80 g/ha): 80%
Post-emergence effect against MATIN in % ([8]; 320 g/ha): 80%
Post-emergence effect against AVEFA [9]: 90%
Post-emergence effect against AMARE ([10]; 20 g/ha): 80%
Post-emergence effect against AMARE ([10]; 80 g/ha): 80%
Post-emergence effect against AMARE ([10]; 320 g/ha): 80%
Post-emergence effect against ORYSA ([11]; 20 g/ha): 0%
Post-emergence effect against ORYSA ([11]; 80 g/ha): 20%
Post-emergence effect at 20 g/ha against TRZAS in % [16]: 10%
Post-emergence effect against ABUTH ([12]; 20 g/ha): 80%
Post-emergence effect against ABUTH ([12]; 80 g/ha): 90%
Post-emergence effect against ABUTH ([12]; 320 g/ha): 90%
Post-emergence effect against ECHCG in % ([13]; 80 g/ha): 80%
Post-emergence effect against ECHCG in % ([13]; 320 g/ha): 90%
Post-emergence effect against SETVI in % ([14]; 80 g/ha): 80%
Post-emergence effect against SETVI in % ([14]; 320 g/ha): 90%
Post-emergence effect against POLCO in % ([15]; 80 g/ha): 80%
Post-emergence effect against POLCO in % ([15]; 320 g/ha): 80%

COC(=O)C(OC)Oc1nn(-c2cccc(Cl)c2F)c(-c2cncc(F)c2)c1I (centres unmarked) [Example I-19]
Post-emergence effect against ALOMY ([1]; 320 g/ha): 80%
Post-emergence effect against PHBPU in % ([2]; 20 g/ha): 80%
Post-emergence effect against PHBPU in % ([2]; 80 g/ha): 90%
Post-emergence effect against PHBPU in % ([2]; 320 g/ha): 90%
Post-emergence effect against DIGSA ([4]; 320 g/ha): 90%
Post-emergence effect against VERPE in % ([6]; 80 g/ha): 80%
Post-emergence effect against VERPE in % ([6]; 320 g/ha): 80%
Post-emergence effect against VIOTR in % ([7]; 80 g/ha): 80%
Post-emergence effect against VIOTR in % ([7]; 320 g/ha): 80%
Post-emergence effect against MATIN in % ([8]; 320 g/ha): 80%
Post-emergence effect against AVEFA [9]: 80%
Post-emergence effect against AMARE ([10]; 80 g/ha): 80%
Post-emergence effect against AMARE ([10]; 320 g/ha): 80%
Post-emergence effect against ORYSA ([11]; 20 g/ha): 0%
Post-emergence effect against ORYSA ([11]; 80 g/ha): 0%
Post-emergence effect at 320 g/ha against ORYSA in % [11]: 20%
Post-emergence effect at 20 g/ha against TRZAS in % [16]: 20%
Post-emergence effect against ABUTH ([12]; 80 g/ha): 90%
Post-emergence effect against ABUTH ([12]; 320 g/ha): 90%
Post-emergence effect against ECHCG in % ([13]; 80 g/ha): 80%
Post-emergence effect against ECHCG in % ([13]; 320 g/ha): 90%
Post-emergence effect against SETVI in % ([14]; 320 g/ha): 80%
Post-emergence effect against POLCO in % ([15]; 80 g/ha): 80%
Post-emergence effect against POLCO in % ([15]; 320 g/ha): 80%

COC(Oc1nn(-c2ccccc2F)c(-c2ccc(F)nc2)c1Br)C(=O)O (centres unmarked) [Example I-24]
Post-emergence effect at 20 g/ha against ZEAMX in % ([5]; 20 g/ha): 0%
Post-emergence effect at 80 g/ha against ZEAMX in % [5]: 10%
plant injury at 320 g/ha ([5]; Zea mays, 504 h): 20%
Post-emergence effect at 320 g/ha against ORYSA in % [11]: 10%
Post-emergence effect at 20 g/ha against TRZAS in % [16]: 0%

COC(=O)C(OC)Oc1nn(-c2cnccn2)c(-c2ccc(F)nc2)c1Br (centres unmarked) [Example I-36]
pest or weed control at 320 g/ha ([2]; 320 g/ha): 80%
pest or weed control at 320 g/ha ([3]; Lolium rigidum, 504 h, read-out: Post-emergence effect against LOLRI in %): 80%
pest or weed control at 320 g/ha ([10]; Amaranthus retroflexus, 504 h, 320 g/ha, read-out: Post-emergence effect against AMARE): 80%
Post-emergence effect at 320 g/ha against ORYSA in % [11]: 20%
percent crop injury (phytotoxicity) to wheat, post-emergence at 20 g/ha [16]: 20%
pest or weed control at 320 g/ha ([13]; Echinochloa crus-galli, 504 h, 320 g/ha, read-out: Post-emergence effect against ECHCG in %): 90%
pest or weed control at 320 g/ha ([14]; Setaria viridis, 504 h, 320 g/ha, read-out: Post-emergence effect against SETVI in %): 80%
pest or weed control at 320 g/ha ([15]; Fallopia convolvulus, 504 h, 320 g/ha, read-out: Post-emergence effect against POLCO in %): 80%
